Read-outs that look alike come from different tables or passages of the source. Starred links: 1 amine or outer side, 2 acyl side, 3 side chain; linkers in the order of their positions; H or OH if unused. Non-standard residues stand in square brackets, D forms with d. Residues, ends and D or L forms follow the SMILES beside them. dPro(4R-(4-pyridylmethyl)) = O=C(O)[C@H]1C[C@@H](Cc2ccncc2)CN1; Trp(βS-Me,4-F) = C[C@@H](c1c[nH]c2cccc(F)c12)[C@H](N)C(=O)O; Bip(4'-COOH) = N[C@@H](Cc1ccc(-c2ccc(C(=O)O)cc2)cc1)C(=O)O; Ala(1-bicyclo(1.1.1)pentyl) = N[C@@H](CC12CC(C1)C2)C(=O)O; dPro(4R-Bzl(4-F)) = O=C(O)[C@H]1C[C@@H](Cc2ccc(F)cc2)CN1; X4 = O=C([C@H]1[C@@H](Cc2ccncc2)CCN1[*:1])[*:2]; Ala(piperazin-1-yl) = N[C@@H](CN1CCNCC1)C(=O)O; Ala(pyrimidin-5-yl) = N[C@@H](Cc1cncnc1)C(=O)O; Phe(4-COOH) = N[C@@H](Cc1ccc(C(=O)O)cc1)C(=O)O; X30 = O=C([C@@H](N[*:1])[C@H](O)c1ccncc1)[*:2]; Bip = N[C@@H](Cc1ccc(-c2ccccc2)cc1)C(=O)O; Pro(cis-4-F) = O=C(O)[C@@H]1C[C@H](F)CN1; Ala(4-THP) = N[C@@H](CC1CCOCC1)C(=O)O; Dap(CONH2) = NC(=O)NC[C@H](N)C(=O)O; cisHyp = O=C(O)[C@@H]1C[C@H](O)CN1; d(αMeD) = C[C@@](N)(CC(=O)O)C(=O)O; 4Pal = N[C@@H](Cc1ccncc1)C(=O)O; αMeD = C[C@](N)(CC(=O)O)C(=O)O; dDab = NCC[C@@H](N)C(=O)O; Dab = NCC[C@H](N)C(=O)O; Aib = CC(C)(N)C(=O)O
Biological target: T1, IL-1β (Homo sapiens, UniProt P01584)
T1 construct: purchased BioLegend 579404
T1 sequence (P01584 117-269): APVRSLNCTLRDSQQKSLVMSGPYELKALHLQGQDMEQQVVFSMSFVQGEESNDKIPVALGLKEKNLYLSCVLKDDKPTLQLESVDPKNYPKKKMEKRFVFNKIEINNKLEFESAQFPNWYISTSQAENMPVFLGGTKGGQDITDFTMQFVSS
Experiment: IL-6 assay in MRC5 cells: inhibition of IL-1β induced IL-6 secretion (AlphaLISA)
Format: cell-based
Conditions: inhibition of IL-1β induced IL-6 secretion in MRC5 cells, read-out: MRC5 IC50
Procedure, shortened: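 Compound was pre-incubated 1 h at ambient temperature with recombinant human IL-1β at 2λ EC80 before adding human lung fibroblast MRC5 cells (3000/well) in EMEM with 0.025% BSA. After overnight culture at 37 °C, 5% CO2, secreted IL-6 in conditioned medium was measured by AlphaLISA; IC50 from 4-parameter logistic fits.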

[1] = compound pre-incubated 1 hour with recombinant human IL-1β

Row | SMILES | IC50 | IC50 [1]
1 | C[C@@H](c1c[nH]c2cccc(F)c12)[C@@H]1NC(=O)[C@@H]2C[C@H](O)CN2C(=O)CNC(=O)[C@H](Cc2ccc(C(=O)O)cc2)NC(=O)[C@H](CC23CC(C2)C3)NC(=O)[C@H](Cc2ccc(-c3ccc(C(=O)O)cc3)cc2)NC(=O)[C@H]2C[C@@H](Cc3ccncc3)CN2C(=O)CNC(=O)[C@H](CCN)NC(=O)[C@H](CCC(N)=O)NC(=O)[C@H](CC2CCOCC2)NC(=O)[C@](C)(CC(=O)O)NC(=O)[C@H](Cc2c[nH]c3ccccc23)NC(=O)[C@H](CO)NC(=O)C(C)(C)NC1=O [Example 191] (cyclo([Bip(4'-COOH)][Ala(1-bicyclo(1.1.1)pentyl)][Phe(4-COOH)]G[cisHyp][Trp(βS-Me,4-F)][Aib]SW[αMeD][Ala(4-THP)]Q[Dab]G[dPro(4R-(4-pyridylmethyl))])) | 21 pM | 
2 | C[C@@H](c1c[nH]c2cccc(F)c12)[C@@H]1NC(=O)[C@@H]2C[C@H](F)CN2C(=O)CNC(=O)[C@H](Cc2ccc(C(=O)O)cc2)NC(=O)[C@H](Cc2ccncc2)NC(=O)[C@H](Cc2ccc(-c3ccccc3)cc2)NC(=O)[C@H]2C[C@@H](Cc3ccncc3)CN2C(=O)CNC(=O)[C@H](CNC(N)=O)NC(=O)[C@H](CCC(N)=O)NC(=O)[C@@H](CCN)NC(=O)[C@@](C)(CC(=O)O)NC(=O)[C@H](Cc2c[nH]c3ccccc23)NC(=O)[C@H](CO)NC(=O)C(C)(C)NC1=O [Example 247] (cyclo([Bip][4Pal][Phe(4-COOH)]G[Pro(cis-4-F)][Trp(βS-Me,4-F)][Aib]SW[d(αMeD)][dDab]Q[Dap(CONH2)]G[dPro(4R-(4-pyridylmethyl))])) |  | 30 pM
3 | C[C@@H](c1c[nH]c2cccc(F)c12)[C@@H]1NC(=O)[C@@H]2C[C@H](O)CN2C(=O)CNC(=O)[C@H](Cc2ccc(C(=O)O)cc2)NC(=O)[C@H](Cc2ccncc2)NC(=O)[C@H](Cc2ccc(-c3ccc(C(=O)O)cc3)cc2)NC(=O)[C@H]2[C@@H](Cc3ccncc3)CCN2C(=O)CNC(=O)[C@H](CCN)NC(=O)[C@H](CCC(N)=O)NC(=O)[C@H](Cc2cncnc2)NC(=O)C(C)(C)NC(=O)[C@H](Cc2c[nH]c3ccccc23)NC(=O)[C@H](CO)NC(=O)C(C)(C)NC1=O [Example 325] (cyclo([Bip(4'-COOH)][4Pal][Phe(4-COOH)]G[cisHyp][Trp(βS-Me,4-F)][Aib]SW[Aib][Ala(pyrimidin-5-yl)]Q[Dab]G[X4])) | 27 pM | 
4 | C[C@@H](c1c[nH]c2cccc(F)c12)[C@@H]1NC(=O)[C@@H]2C[C@H](F)CN2C(=O)CNC(=O)[C@H](Cc2ccc(C(=O)O)cc2)NC(=O)[C@H]([C@H](O)c2ccncc2)NC(=O)[C@H](Cc2ccc(-c3ccc(C(=O)O)cc3)cc2)NC(=O)[C@H]2C[C@@H](Cc3ccc(F)cc3)CN2C(=O)CNC(=O)[C@H](CCN)NC(=O)[C@H](CCC(N)=O)NC(=O)[C@H](Cc2cncnc2)NC(=O)C(C)(C)NC(=O)[C@H](Cc2c[nH]c3ccccc23)NC(=O)[C@H](CO)NC(=O)C(C)(C)NC1=O [Example 274] (cyclo([Bip(4'-COOH)][X30][Phe(4-COOH)]G[Pro(cis-4-F)][Trp(βS-Me,4-F)][Aib]SW[Aib][Ala(pyrimidin-5-yl)]Q[Dab]G[dPro(4R-Bzl(4-F))])) |  | 26 pM
5 | C[C@@H](c1c[nH]c2cccc(F)c12)[C@@H]1NC(=O)[C@@H]2C[C@H](F)CN2C(=O)CNC(=O)[C@H](Cc2ccc(C(=O)O)cc2)NC(=O)[C@H](Cc2ccncc2)NC(=O)[C@H](Cc2ccc(-c3ccc(C(=O)O)cc3)cc2)NC(=O)[C@H]2C[C@@H](Cc3ccc(F)cc3)CN2C(=O)CNC(=O)[C@H](CCN)NC(=O)[C@H](CCC(N)=O)NC(=O)[C@H](CN2CCNCC2)NC(=O)C(C)(C)NC(=O)[C@H](Cc2c[nH]c3ccccc23)NC(=O)[C@H](CCC(=O)O)NC(=O)C(C)(C)NC1=O [Example 120] (cyclo([Bip(4'-COOH)][4Pal][Phe(4-COOH)]G[Pro(cis-4-F)][Trp(βS-Me,4-F)][Aib]EW[Aib][Ala(piperazin-1-yl)]Q[Dab]G[dPro(4R-Bzl(4-F))])) | 14 pM | 
6 | C[C@@H](c1c[nH]c2cccc(F)c12)[C@@H]1NC(=O)[C@@H]2C[C@H](F)CN2C(=O)CNC(=O)[C@H](Cc2ccc(C(=O)O)cc2)NC(=O)[C@H](Cc2ccncc2)NC(=O)[C@H](Cc2ccc(-c3ccc(C(=O)O)cc3)cc2)NC(=O)[C@H]2C[C@@H](Cc3ccc(F)cc3)CN2C(=O)CNC(=O)[C@H](CCN)NC(=O)[C@H](CCC(N)=O)NC(=O)[C@H](Cc2cncnc2)NC(=O)C(C)(C)NC(=O)[C@H](Cc2c[nH]c3ccccc23)NC(=O)[C@H](CCC(=O)O)NC(=O)C(C)(C)NC1=O [Example 4] (cyclo([Bip(4'-COOH)][4Pal][Phe(4-COOH)]G[Pro(cis-4-F)][Trp(βS-Me,4-F)][Aib]EW[Aib][Ala(pyrimidin-5-yl)]Q[Dab]G[dPro(4R-Bzl(4-F))])) | 31 pM | 
